Results reported in patent publication US20230295197A1, “STAT5 and STAT6 Degraders and Uses Thereof” (REGENTS OF THE UNIVERSITY OF MICHICAN, priority 2022, published 2023).
Read-outs that look alike come from different tables or passages of the source.

Experiments:
STAT5 = test: Immunoblotting (Western blot) analysis of STAT5 degradation efficiency of degraders in treated cells; assay type: cell-based
Procedure, shortened: (§1)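 Cells (~1 million per point) treated with compounds at indicated concentrations and times, lysed in RIPA with protease/phosphatase inhibitors; 20-40 μg protein run on SDS-PAGE and blotted to PVDF. STAT6 or STAT5 rabbit mAbs with GAPDH loading control, IRDye secondaries; near-infrared fluorescence scan, band intensity quantified.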

STAT6 = target: T1, STAT6 (Homo sapiens, UniProt P42226); test: Immunoblotting (Western blot) analysis of STAT6 degradation efficiency of degraders in treated cells; assay type: cell-based
T1 construct: endogenous in cells; host or cells: MOLM-16, KU-812, SKNO1, MB231, L1236
T1 sequence (P42226 1-847): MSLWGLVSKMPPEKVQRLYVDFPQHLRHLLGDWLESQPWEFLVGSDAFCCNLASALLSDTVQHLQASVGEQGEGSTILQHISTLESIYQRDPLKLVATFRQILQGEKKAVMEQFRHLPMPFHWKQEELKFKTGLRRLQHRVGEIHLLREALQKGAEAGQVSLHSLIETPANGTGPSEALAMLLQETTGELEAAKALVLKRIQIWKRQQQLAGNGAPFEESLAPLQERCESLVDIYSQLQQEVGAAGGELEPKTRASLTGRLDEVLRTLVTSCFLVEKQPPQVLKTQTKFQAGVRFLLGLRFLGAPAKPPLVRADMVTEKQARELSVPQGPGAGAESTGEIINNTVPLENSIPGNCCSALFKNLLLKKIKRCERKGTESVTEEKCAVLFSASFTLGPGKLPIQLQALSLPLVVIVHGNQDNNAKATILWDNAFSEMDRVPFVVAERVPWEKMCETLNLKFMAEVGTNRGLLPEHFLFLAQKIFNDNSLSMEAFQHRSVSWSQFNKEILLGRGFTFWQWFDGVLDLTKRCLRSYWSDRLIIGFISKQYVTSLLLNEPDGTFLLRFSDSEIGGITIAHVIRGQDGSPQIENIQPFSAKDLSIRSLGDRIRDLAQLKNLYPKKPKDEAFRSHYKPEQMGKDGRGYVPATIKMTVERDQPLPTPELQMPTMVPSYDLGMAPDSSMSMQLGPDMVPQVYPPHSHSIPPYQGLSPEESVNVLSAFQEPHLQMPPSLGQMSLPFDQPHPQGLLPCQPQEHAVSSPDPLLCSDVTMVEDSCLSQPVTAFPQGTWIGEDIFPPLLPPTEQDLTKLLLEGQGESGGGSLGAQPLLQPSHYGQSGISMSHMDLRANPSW
Procedure, shortened: as §1

[1] = MOLM-16 cells, class symbols, read-out: DC50 S5 MOLM-16
[2] = MOLM-16 cells, class symbols, read-out: DC50 S6 MOLM-16
[3] = KU-812 cells, read-out: DC50 S5 KU-812
[4] = SKNO1 cells, read-out: DC50 S5 SKNO1
[5] = MB231 cells, read-out: DC50 S6 MB231
[6] = MOLM-16 cells, numeric bound, read-out: DC50 S5 MOLM-16
[7] = MOLM-16 cells, numeric bound, read-out: DC50 S6 MOLM-16
[8] = L1236 cells, read-out: DC50 S6 L1236

| Compound | DC50 (STAT5; [1]) [µM] | DC50 (STAT6; [2]) [µM] | DC50 (STAT5; [4]) [µM] | DC50 (STAT6; [5]) [µM] | DC50 (STAT6; [7]) [µM] | other results |
| --- | --- | --- | --- | --- | --- | --- |
| CC(C)(C)[C@H](NC(=O)c1cc2cc(C(F)(F)P(=O)(O)O)ccc2s1)C(=O)N1C[C@@H](OCCCCCC#Cc2cccc3c2CN(C2CCC(=O)NC2=O)C3=O)C[C@H]1C(=O)N1CCO[C@H](c2ccccc2)C1 (stereo partly drawn) [Compound 593, ((2-(((2S)-1-((2S,4S)-4-((7-(2-(2,6-dioxopiperidin-3-yl)-1-oxoisoindolin-4-yl)hept-6-yn-1-yl)oxy)-2-((R)-2-phenylmorpholine-4-carbonyl)pyrrolidin-1-yl)-3,3-dimethyl-1-oxobutan-2-yl)carbamoyl)benzo[b]thiophen-5-yl)difluoromethyl)phosphonic acid] | > 10 | < 0.1 |  |  |  |  |
| CC(C)(C)[C@H](NC(=O)c1cc2cc(C(F)(F)P(=O)(O)O)ccc2s1)C(=O)N1CCC[C@H]1C(=O)N(CCC(=O)NCCCC#Cc1cccc2c1CN(C1CCC(=O)NC1=O)C2=O)c1ccc(Br)cc1 (stereo partly drawn) [Compound 406, ((2-(((2S)-1-((2S)-2-((4-bromophenyl)(3-((5-(2-(2,6-dioxopiperidin-3-yl)-1-oxoisoindolin-4-yl)pent-4-yn-1-yl)amino)-3-oxopropyl)carbamoyl)pyrrolidin-1-yl)-3,3-dimethyl-1-oxobutan-2-yl)carbamoyl)benzo[b]thiophen-5-yl)difluoromethyl)phosphonic acid] | < 0.1 | > 10 | 0.1 to 1 | > 10 |  | DC50 (STAT5; [3]): 0.1 to 1 µM; DC50 (STAT6; KU-812 cells, read-out: DC50 S6 KU-812): > 10 µM; DC50 (STAT6; SKNO1 cells, read-out: DC50 S6 SKNO1): > 10 µM |
| CC(C)(C)C(=O)OCOP(=O)(O)C(F)(F)c1ccc2sc(C(=O)N[C@H](C(=O)N3CCC[C@H]3C(=O)N(CCOCCOCC#Cc3cccc4c3CN(C3CCC(=O)NC3=O)C4=O)c3ccc4ccccc4c3)C(C)(C)C)cc2c1 (stereo partly drawn) [Compound 678, ((((2-(((2S)-1-((2S)-2-((2-(2-((3-(2-(2,6-dioxopiperidin-3-yl)-1-oxoisoindolin-4-yl)prop-2-yn-1-yl)oxy)ethoxy)ethyl)(naphthalen-2-yl)carbamoyl)pyrrolidin-1-yl)-3,3-dimethyl-1-oxobutan-2-yl)carbamoyl)benzo[b]thiophen-5-yl)difluoromethyl)(hydroxy)phosphoryl)oxy)methyl pivalate] |  |  |  |  | > 0.3 | DC50 (STAT5; [6]): > 0.3 µM |
| CN(CCCC#Cc1cccc2c1CN(C1CCC(=O)NC1=O)C2=O)C(=O)CCN(C(=O)[C@@H]1CCCN1C(=O)[C@@H](NC(=O)c1cc2cc(C(F)(F)P(=O)(O)OCOC(=O)C(C)(C)C)ccc2s1)C(C)(C)C)c1ccc(Br)cc1 (stereo partly drawn) [Compound 677, ((((2-(((2S)-1-((2S)-2-((4-bromophenyl)(3-((5-(2-(2,6-dioxopiperidin-3-yl)-1-oxoisoindolin-4-yl)pent-4-yn-1-yl)(methyl)amino)-3-oxopropyl)carbamoyl)pyrrolidin-1-yl)-3,3-dimethyl-1-oxobutan-2-yl)carbamoyl)benzo[b]thiophen-5-yl)difluoromethyl)(hydroxy)phosphoryl)oxy)methyl pivalate] | < 0.1 |  |  |  | > 0.3 |  |
| CC(C)(C)[C@H](NC(=O)c1cc2cc(C(F)(F)P(=O)(O)O)ccc2s1)C(=O)N1CCC[C@H]1C(=O)N(CCC(=O)NCCCC#Cc1cccc2c1CN(C1CCC(=O)NC1=O)C2=O)c1ccc2ncsc2c1 (stereo partly drawn) [Compound 662, ((2-(((2S)-1-((2S)-2-(benzo[d]thiazol-6-yl(3-((5-(2-(2,6-dioxopiperidin-3-yl)-1-oxoisoindolin-4-yl)pent-4-yn-1-yl)amino)-3-oxopropyl)carbamoyl)pyrrolidin-1-yl)-3,3-dimethyl-1-oxobutan-2-yl)carbamoyl)benzo[b]thiophen-5-yl)difluoromethyl)phosphonic acid] |  |  | > 10 |  | > 0.3 | DC50 (STAT5; [3]): > 10 µM; DC50 (STAT5; [6]): > 0.3 µM |
| CC(C)(C)[C@H](NC(=O)c1cc2cc(C(F)(F)P(=O)(O)O)ccc2s1)C(=O)N1CCC[C@H]1C(=O)N(CCC(=O)NCCCCCCCCC#Cc1cccc2c1CN(C1CCC(=O)NC1=O)C2=O)c1ccc(Br)cc1 (stereo partly drawn) [Compound 403, ((2-(((2S)-1-((2S)-2-((4-bromophenyl)(3-((10-(2-(2,6-dioxopiperidin-3-yl)-1-oxoisoindolin-4-yl)dec-9-yn-1-yl)amino)-3-oxopropyl)carbamoyl)pyrrolidin-1-yl)-3,3-dimethyl-1-oxobutan-2-yl)carbamoyl)benzo[b]thiophen-5-yl)difluoromethyl)phosphonic acid] | 1 to 10 | > 10 |  | > 10 |  | DC50 (STAT5; [3]): > 10 µM |
| CN(CCCC#Cc1cccc2c1CN(C1CCC(=O)NC1=O)C2=O)C(=O)CCN(C(=O)[C@@H]1CCCN1C(=O)[C@@H](NC(=O)c1cc2cc(C(F)(F)P(=O)(O)OCOC(=O)C(C)(C)C)ccc2s1)C(C)(C)C)c1ccc2occc2c1 (stereo partly drawn) [Compound 672, ((((2-(((2S)-1-((2S)-2-(benzofuran-5-yl(3-((5-(2-(2,6-dioxopiperidin-3-yl)-1-oxoisoindolin-4-yl)pent-4-yn-1-yl)(methyl)amino)-3-oxopropyl)carbamoyl)pyrrolidin-1-yl)-3,3-dimethyl-1-oxobutan-2-yl)carbamoyl)benzo[b]thiophen-5-yl)difluoromethyl)(hydroxy)phosphoryl)oxy)methyl pivalate] | < 0.1 |  |  |  | > 0.3 |  |
| CC(C)(C)[C@H](NC(=O)c1cc2cc(C(F)(F)P(=O)(O)O)ccc2s1)C(=O)N1CCC[C@H]1C(=O)N1Cc2ccccc2CC1C(=O)NCCCC#Cc1cccc2c1CN(C1CCC(=O)NC1=O)C2=O (stereo partly drawn) [Compound 657, ((2-(((2S)-1-((2S)-2-(3-((5-(2-(2,6-dioxopiperidin-3-yl)-1-oxoisoindolin-4-yl)pent-4-yn-1-yl)carbamoyl)-1,2,3,4-tetrahydroisoquinoline-2-carbonyl)pyrrolidin-1-yl)-3,3-dimethyl-1-oxobutan-2-yl)carbamoyl)benzo[b]thiophen-5-yl)difluoromethyl)phosphonic acid] |  |  |  |  | > 0.3 | DC50 (STAT5; [6]): > 0.3 µM |
| CC(C)(C)C(=O)OCOP(=O)(O)C(F)(F)c1ccc2sc(C(=O)N[C@H](C(=O)N3C[C@@H](OCCCCCC#Cc4cccc5c4CN(C4CCC(=O)NC4=O)C5=O)C[C@H]3C(=O)N3CCO[C@H](c4ccccc4)C3)C(C)(C)C)cc2c1 (stereo partly drawn) [Compound 652, ((((2-(((2S)-1-((2S,4S)-4-((7-(2-(2,6-dioxopiperidin-3-yl)-1-oxoisoindolin-4-yl)hept-6-yn-1-yl)oxy)-2-((R)-2-phenylmorpholine-4-carbonyl)pyrrolidin-1-yl)-3,3-dimethyl-1-oxobutan-2-yl)carbamoyl)benzo[b]thiophen-5-yl)difluoromethyl)(hydroxy)phosphoryl)oxy)methyl pivalate] | > 10 | < 0.1 |  |  |  |  |
| CN(C(=O)[C@@H]1C[C@@H](OCC(=O)NCCCC#Cc2cccc3c2CN(C2CCC(=O)NC2=O)C3=O)CN1C(=O)[C@@H](NC(=O)c1cc2cc(C(F)(F)P(=O)(O)O)ccc2s1)C(C)(C)C)c1ccc(Br)cc1 (stereo partly drawn) [Compound 411, ((2-(((2S)-1-((2S,4R)-2-((4-bromophenyl)(methyl)carbamoyl)-4-(2-((5-(2-(2,6-dioxopiperidin-3-yl)-1-oxoisoindolin-4-yl)pent-4-yn-1-yl)amino)-2-oxoethoxy)pyrrolidin-1-yl)-3,3-dimethyl-1-oxobutan-2-yl)carbamoyl)benzo[b]thiophen-5-yl)difluoromethyl)phosphonic acid] |  |  | > 10 | > 10 |  | DC50 (STAT6; [8]): > 10 µM |
| CN(C(=O)[C@@H]1C[C@@H](OCC(=O)NCCCCCCCCC#Cc2cccc3c2CN(C2CCC(=O)NC2=O)C3=O)CN1C(=O)[C@@H](NC(=O)c1cc2cc(C(F)(F)P(=O)(O)O)ccc2s1)C(C)(C)C)c1ccc(Br)cc1 (stereo partly drawn) [Compound 414, ((2-(((2S)-1-((2S,4R)-2-((4-bromophenyl)(methyl)carbamoyl)-4-(2-((10-(2-(2,6-dioxopiperidin-3-yl)-1-oxoisoindolin-4-yl)dec-9-yn-1-yl)amino)-2-oxoethoxy)pyrrolidin-1-yl)-3,3-dimethyl-1-oxobutan-2-yl)carbamoyl)benzo[b]thiophen-5-yl)difluoromethyl)phosphonic acid] |  |  | > 10 | > 10 |  | DC50 (STAT6; [8]): > 10 µM |
